This is an account of results in patent US10011614B2, “Bis-β-carboline compound and preparation method, pharmaceutical composition and use thereof” (XINJIANG HUASHIDAN PHARMACEUTICAL RESEARCH CO., LTD., priority 2012, dated 2018).

Molecules are shown by their SMILES.

In data set [1] the test system is 769-P (human renal carcinoma cells). As to the kind of experiment: Antitumor screening in vitro, MTT assay, 769-P. In kind it is cell-based. As to conditions: 48 hours, 769-P cells. How it is done:
(§1) Cell lines: BGC (human gastric cancer cells), A375 (human malignant melanoma cells), 769-P (human renal carcinoma cells), KB (human oral epidermoid carcinoma cells), SK-OV-3 (human ovarian cancer cells), etc, were selected, and the test method was the MTT assay. Cisplatin was as a positive control.
(§2) Specific methods are as follows: cells growing well in the logarithmic phase were seeded in 96-well plates at a concentration of 1×10^4 cells/ml, and then were placed in 37° C., containing 5% CO2 incubator for 24 hours. After discarding the old solution, changed fresh medium, and added sterilization treatment compound, and then cultured for 48 hours. After discarding the culture medium, 20 ul RPMI1640 medium containing 5 mg/ml MTT were added to each well in 96-well plates and cells were cultured for 4 hours. After the supernatant was carefully removed, 100 μl DMSO was added to each well, and the plates were Oscillated about 10 min to dissolve the precipitate, followed by detecting OD value in wavelength 490 nm by the microplate reader. Cell survival rate for each sample concentrations was determined by the following formula: The mean survival rate %=the average OD value of sample group/the average OD value of control group×100%
(§3) Morphological studies by mapping with the logarithm of the drug concentration and the mean survival rate % of each sample to obtain IC50 values for each sample.
For orientation: Formazan colour is commonly taken as a measure of viable cells.

For a further data set, the system named is Kunming mice. As to the kind of experiment: Acute toxicity test in mice (LD50). As to conditions: Kunming mice, single intraperitoneal administration, observed two weeks, Bliss method. On the procedure: (§4) Solvent: 0.9% saline and 0.5% CMC-Na solution. According to pre-test results, design 5 dose gradient for each sample, dose spacing was 0.8 times. […] Experimental volume is 0.5 ml/20 g mouse. A single intraperitoneal administration is used. Kunming mice were taken and grouped randomly by gender, and intraperitoneal administration according to dose designation was set to observe the immediate reaction after administration in mice. Dead animals were dissected to observe, surviving animals continued to observe two weeks, and the animal deaths in two weeks were recorded. After two weeks, surviving animals were dissected, observed substantial organ lesions, and the organs having substantive lesions were further for histological examination. According to the number of deaths in each group of animals, calculating the median lethal dose (LD50 value) by Bliss method, and further, calculating the maximum tolerated dose (MTD) for less toxic compounds.

The subject of data set [2] is BGC (human gastric cancer cells). Put plainly: Antitumor screening in vitro, MTT assay, BGC. As to conditions: 48 hours. Type of data set: cell-based. On the procedure:
as §1, §2, §3

Data set [3] concerns A375 (human malignant melanoma cells). As to the kind of experiment: Antitumor screening in vitro, MTT assay, A375. Type of data set: cell-based. How it is done: as §1, §2, §3
The subject of data set [4] is KB (human oral epidermoid carcinoma cells). As to the kind of experiment: Antitumor screening in vitro, MTT assay, KB. In kind it is cell-based. To be noted: 48 hours. On the procedure:
as §1, §2, §3

Data set [5] relates to SK-OV-3 (human ovarian cancer cells). As to the kind of experiment: Antitumor screening in vitro, MTT assay, SK-OV-3. In kind it is cell-based. To be noted: 48 hours, SK-OV-3 cells. On the procedure:
as §1, §2, §3

The nature of another data set: in vivo. To be noted: both, Kunming, mouse, in vivo, ip. How it is done:
as §4

The IC50 is the midpoint of a concentration-inhibition curve. On to `COc1cc(-c2nccc3c4ccccc4n(CCCCCCn4c5ccccc5c5ccnc(-c6cc(OC)c(OC)c(OC)c6)c54)c23)cc(OC)c1OC` [Compound 19, 1,6-bis[1-(3,4,5-trimethoxy)phenyl-β-carboline-9-yl) hexane], for which the half-inhibitory concentration (IC50) in data set [1] is 16.8 µM; in data set [2] it was more than 300 µM; in data set [3] (48 hours), 5.9 µM; in data set [4], more than 300 µM; in data set [5] it was more than 300 µM. Also, the acute toxicity LD50 in the data set on Kunming mice came out at 200 mg/kg.
The LD50 is the dose expected to kill half of the subjects tested. For the molecule `Cc1nccc2c3ccc(OC(C)C)cc3n(CCCCCCCCCn3c4cc(OC(C)C)ccc4c4ccnc(C)c43)c12` [Compound 26, 1,9-bis(7-isopropoxy-1-methyl-β-carboline-9-yl) nonane], the half-inhibitory concentration (IC50) in data set [1] (Homo sapiens) was 40 µM; in data set [2] (Homo sapiens) it was more than 300 µM; in data set [3] (Homo sapiens, A-375, 48 hours) it was 43.3 µM; in data set [4] (Homo sapiens) it was 112 µM; in data set [5] (Homo sapiens), 101 µM. In “in vivo”, this molecule yielded a 50% lethal dose (LD50) at 2 weeks of 200 mg/kg.
Take `CCOC(=O)c1cc2c3ccccc3n(CCCCCCn3c4ccccc4c4cc(C(=O)OCC)nc(-c5cc(OC)c(OC)c(OC)c5)c43)c2c(-c2cc(OC)c(OC)c(OC)c2)n1` [Compound 27, 1,6-bis[1-(3,4.5-trimethoxy)phenyl-β-carboline-β-ethyoxylcarbonyl-9-yl]hexane]: in the data set with Kunming mice, the acute toxicity LD50 stood at 300 mg/kg.
Consider `c1ccc2c(c1)c1ccnc(-c3ccsc3)c1n2CCCCCCCCn1c2ccccc2c2ccnc(-c3ccsc3)c21` [Compound 34, 1,8-bis[1-(3-thienyl)-β-carboline-9-yl) octane], for which the half-maximal inhibitory concentration (IC50) in data set [1] (Homo sapiens) is more than 300 µM; in data set [2] (Homo sapiens), more than 300 µM; in data set [3] (Homo sapiens, A-375, 48 hours) it was 32.1 µM; in data set [4] (Homo sapiens), more than 300 µM; in data set [5] (Homo sapiens) it was more than 300 µM. In the data set “in vivo”, this molecule had a 50% lethal dose (LD50) at 2 weeks of 250 mg/kg.
